# Data as given in patent US20150099645A1, “MEANS AND METHODS FOR DIAGNOSTICS AND TH[…] DISEASES” (priority 2012, published 2015).
# Legend:
# T cells (CD3+) = test: GVHD mouse model, LiCl treatment of allogeneic mice, CD3+ T cells of spleen counted by flow cytometry; assay type: in vivo; settings: 2.0 mg/kg LiCl once a day, day 3 post-transplant
# Description: Mice are divided into 3 groups (Untreated, Syngeneic and Allogeneic) per time point with 6-12 mice per group. The untreated group mice (without irradiation) were injected with plain medium. The syngeneic group irradiated (600 rads) Balb/c mice were injected with splenocytes (30×10̂6) from matched donor Balb/c mice. The allogeneic group irradiated (600 rads) Balb/c mice were injected with splenocytes (30×10̂6) from unmatched donor C57Bl/6 mice. An additional 2-3 mice in each group were injected with 2.0 mg/kg LiCl (dissolved 1:2 LiCl:PBS), once a day from day 1 to day 5 post-transplant, sacrificed at days 3 and 5.
# Total T cells (CD3+) were collected from spleens of mice of the 3 groups of the GVHD model as described above. Cells were stained for CD3 and counted by Flow Cytometry.
# In order to explore the effect of GSK-3β activation state on T-cell proliferation, the GVHD model mice were treated with Lithium chloride (LiCl). Lithium chloride (LiCl) is known to affect GSK-3β activation state by regulating its phosphorylation state. Lithium chloride (LiCl) treatments were given to a separate group of allogeneic mice.
# [1] = tested on: C57Bl/6 and Balb/c splenocytes; test: Mixed lymphocyte reaction, XTT proliferation assay; assay type: cell-based, mouse; settings: for proliferation level: versus control (0 mM)
# Description: Splenocytes were harvested from untreated Balb/c and C57BL/6 mice. C57BL/6 cells were incubated in a flat bottom 96 well plate for 96 h with either irradiated (1500 rads) or not irradiated Balb/c cells as indicated, at the indicated concentrations. XTT reagent for proliferation assay was added 24 h before reading. Plate was read at 620 nm.
# Splenocytes were collected from spleens of C57Bl/6 and Balb/c mice and cultured ex-vivo and assayed for proliferation by XTT (tetrazolium salt). The C57Bl/6 and Balb/c cells were cultured ex-vivo together to mimic a GVHD reaction. The cells were cultured in 3 groups, having different cell concentrations: • 2×2: 2×10̂5 C57Bl/6 and 2×10̂5 balb/c cells • 1×1: 1×10̂5 C57Bl/6 and 1×10̂5 balb/c cells • 2×*2: 2×10̂5 C57Bl/6 and 2×10̂5 irradiated balb/c cells
# In order to test the effect of GSK-3β activation state on cell proliferation, Lithium Chloride (a known inhibitor of GSK-3β) was added at different concentrations. […] Furthermore, it can be seen that the effect of LiCl depends on the confluence (concentration) of cells.
structure (smiles),measurement,setting,value
"[Cl-].[Li+] [LiCl, Lithium chloride]",amount of T-cells,T cells (CD3+),increased
same,proliferation level,"[1]; 12.5 mM LiCl, 2×2 group (2×10^5 C57Bl/6 and 2×10^5 balb/c cells)",significantly lower
same,proliferation level,"[1]; 25 mM LiCl, 1×1 group (1×10^5 C57Bl/6 and 1×10^5 balb/c cells)",significantly higher
same,proliferation level,"[1]; 25 mM LiCl, 2×2 group",significantly higher
same,effect on proliferation,[1]; doses smaller than 12.5 mM,no apparent effect
